Results: patent publication US20240415858A1, “PROMOTING MYELINATION BY N-ACETYLGLUCOSAMINE AND MODULATION OF N-GLYCAN BRANCHING” (THE REGENTS OF THE UNIVERSITY OF CALIFORNIA, priority 2021, published 2024)
“Also recorded” adds a separate entry of the source.

Experiments:
[1] = test system: mouse neural stem cells (NSC) derived from the medial ganglionic eminence of E12.5 mouse embryos; assay: Oligodendrogenesis from mouse neural stem cells in vitro (flow cytometry, immunofluorescence); assay type: cell-based
Excerpt: Mice were bred and utilized as approved by the University of California, Irvine Institutional Animal Care and Use Committee. Dorsal forebrain cortical tissue was dissected from the medial ganglionic eminence (MGE) at embryonic day 12.5 (E12) of CD1 mice (Charles River) or Mgat5−/− C57BL/6 mice and their wildtype littermates and placed in dissection buffer comprising PBS, 0.6% glucose, and 50 U/mL Pen/Strep. Tissue from multiple embryos within the same litter were pooled, and a subsequent culture from a single litter was considered a biological repeat. The tissue was dissociated using 0.05% Trypsin-EDTA at 37° C. for 10 min, followed by treatment with soybean trypsin inhibitor (Life Technologies). Dissociated cells were re-suspended in proliferation medium comprising DMEM, 1× B27, 1× N2, 1 mM sodium pyruvate, 2 mM L-glutamine, 1 mM N-acetylcysteine, 20 ng/mL EGF (PeproTech), 10 ng/mL bFGF (PeproTech), and 2 μg/mL heparin and seeded at 150,000 cells/mL (non-tissue culture treated plastic plates) and grown as non-adherent spheres. Cell cultures were passaged approximately every 3 days using enzyme-free NeuroCult Chemical Dissociation Kit (Mouse) (StemCell Technologies). Cultures were passaged at least once prior to experimental use. For experiments, passaged cells were cultured in proliferation media (bFGF and EGF) or differentiation media (bFGF (10 ng/ml) and PDGF-AA (10 ng/ml); Life technologies) for 48 hours with or without the presence of GIcNAc (Ultimate Glucosamine, Wellesley Therapeutics) or kifunensine (GlycoSyn). Neurospheres were dispersed using the enzyme-free NeuroCult kit before being analyzed by flow cytometry using one or more of the following antibodies: anti-CD140a/PDGF-RA PE conjugate (1:200, A15785, Molecular Probes), anti-04 Alexa Fluor 488 conjugated (1:200, FAB1326G, RnD systems), Anti-GaIC Alexa Fluor 647 1:200, MAB342-AF647, Millipore), Anti-Olig2 (1:200, AB9610, Millipore) with anti-rabbit Alexa Fluor 488 (1:200, thermofisher).
(§1) For neural stem cell (NSC) immunofluorescence, whole neurospheres were seeded onto laminin-coated coverslips (Neuvitro) in proliferation medium. After 24 hours, proliferation media was removed and replaced with differentiation medium (same components as proliferation medium but excluding EGF, bFGF, and heparin) to induce differentiation. For analysis of mouse brains, brains were incubated in 30% sucrose for at least 72 hours, embedded in OCT (Tissue-tek), frozen for at least 48 hours at −80° C., and then cut at 40 microns on a cryostat. Multiple sections from −1 bregma to −2.5 bregma were then stained with antibodies for MBP (1:100; MAB386, Millipore), Olig2 (1:200; AB9610, Millipore), CC1 (1:100; OP90, Millipore), degraded MBP (1:200, AB5864, Millipore) and Amyloid Precursor Protein (APP, 1:200; clone 22C11). After overnight incubation with primary antibody, tissues were washed and incubated with secondary antibodies: goat anti-rat Alexa-fluor 488 (1:200, Thermofisher), goat anti-rabbit TxRd (1:200, Thermofisher). APP is a marker for neuro-axonal damage while co-staining for CC1 and Olig2 are markers of mature oligodendrocytes. In order to examine the amount of myelin, slices were incubated in Fluoromyelin (1:300; F34651, Thermofisher) for 45 minutes. Images were acquired on a Keyence fluorescence microscope. Mean fluorescence intensity of the medial corpus callosum was measured using ImageJ.
Oligodendrogenesis were examined in vitro using mouse neural stem cells (NSC) derived from the medial ganglionic eminence of E12.5 mouse embryos, where OPC's first appear. […] Consistent with increased PDGFRα surface expression, GIcNAc also promoted pre-oligodendrocyte differentiation as evidenced by augmented expression of Oligodendrocyte Transcription Factor (OLIG2) and increased numbers of 04 and GaIC positive cells (FIGS. 1A, 1B and 1C, FIGS. 5B and 5C). […]

newborn PL/J mice = assay: Primary myelination in newborn pups, GIcNAc given to pregnant/lactating mothers in drinking water; assay type: in vivo, mouse
Procedure: GIcNAc treatment of mouse pups—GIcNAc (1 mg/mL) in drinking water was provided to pregnant PLJ mothers or mothers who recently delivered pups and were nursing their young. After the treatment period, pups were anesthetized with isoflurane and cardiac perfused with PBS. Pup and fetal brains were removed and homogenized by trituration using glass pipettes in PBS with 5% Fetal Bovine Serum (FBS).
Cells were then stained with antibodies and analyzed by flow cytometry using antibodies described herein. For immunofluorescence analysis of pup brains, pups were quickly decapitated, brains harvested and fixed in 4% paraformaldehyde overnight.
as §1
To assess whether oral GIcNAc promotes oligodendrogenesis in vivo in the absence of inflammation, primary myelination was examined in mice during the early perinatal period. GIcNAc or vehicle was provided to pregnant/lactating female mice from E12.5, postnatal day 3 (P3) or P5 through to P8. Indeed, oral GIcNAc increased N-glycan branching in PDGFRα^+ cells as well as the number of pre-oligodendrocytes (PDGFRα^+O4^+), immature oligodendrocytes (PDGFRα-O4^+) and mature oligodendrocytes (MBP*), with little effect on the number of OPC's ([…]) (FIG. 2B and FIG. 6A).

MS patients = assay: Phase 1 trial: serum neurofilament light chain (Nfl), single molecule array immunoassay; assay type: in vivo, human; details: subjects with elevated baseline Nfl from all three dose groups, week 3 and 4 of treatment, p=0.0045, n=18
Procedure: Comparison of the change in serum Nfl concentration in subjects with elevated baseline levels (combined from the 3 g, 6 g, and 12 g cohorts) showing change from pre-GIcNAc to during weeks 3-4 of GIcNAc treatment. The four data points pre-GIcNAc (black dots) and the two data points from week 3 and 4 during GIcNAc treatment are averaged, normalized to pre-GIcNAc levels and shown as black and red dots connected by black lines for each subject, respectively. Nfl was measured by an ultra sensitive single molecule array immunoassay. P-value by 1-tailed Wilcoxon matched-pairs signed rank test.
Neurons exclusively express Nfl and release it when damaged, with high serum Nfl levels (>˜40 pg/ml) serving as a robust biomarker for ongoing neuro-axonal damage in MS. This analysis was done blinded by Jens Kuhle (University of Basel), who has published extensively on Nfl in MS.

[2] = mouse, in vivo, po
[3] = NSCs, 48 hrs, growth media lacking exogenous differentiation cytokines
[4] = mothers treated from E12.5, P3 or P5 to P8, pup brains

CC(=O)N[C@H]1C(O)O[C@H](CO)[C@@H](O)[C@@H]1O (some centres unmarked) [GIcNAc, N-acetylglucosamine]
NSC differentiation to O4+ pre-oligodendrocytes ([1]; GIcNAc combined with PDGF-AA (differentiation media)): enhanced | initiating oligodendrogenesis, compared with PDGF-AA differentiation media ([1]; GIcNAc in growth media vs differentiation media with exogenous PDGF-AA): more potent than differentiation media containing exogenous PDGF-AA | pre-oligodendrocyte differentiation (OLIG2 expression, numbers of O4 and GalC positive cells) ([1]; NSCs, 48 hrs, growth media): promoted | N-glycan branching (L-PHA flow cytometry) [1, 3]: significantly increased | PDGFRα surface expression [1, 3]: significantly increased | development of pre-oligodendrocytes (PDGFRα O4+), double staining ([1]; NSCs, growth media): promoted development | number of OPC's (PDGFRα+O4−) ([1]; NSCs, growth media): no change | primary myelination: staining for myelin (fluoromyelin) (newborn PL/J mice; P3-8): increased | primary myelination: staining for myelin basic protein (MBP) (newborn PL/J mice; P3-8): increased | N-glycan branching in PDGFRα+ cells (newborn PL/J mice; [4]): increased | number of OPC's (PDGFRα−O4+) (newborn PL/J mice; [4]): little effect | number of immature oligodendrocytes (PDGFRα-O4+) (newborn PL/J mice; [4]): increased | number of mature oligodendrocytes (MBP) (newborn PL/J mice; [4]): increased | number of pre-oligodendrocytes (PDGFRα+O4+) (newborn PL/J mice; [4]): increased | serum Nfl levels (MS patients): significantly reduced; also recorded: reduces | crossing of the blood brain barrier [2]: able to cross the blood brain barrier | secretion in breast milk [2]: secreted at sufficient levels in breast milk to raise UDP-GIcNAc in the brains of suckling pups
